“Also recorded” adds a separate entry of the source.
Tests used:
[1] = system: PI 3-kinase associated with the insulin receptor; assay: PI 3-kinase activity associated with the insulin receptor in the liver of a normal rat; type: in vivo; conditions: 18 mg/kg I.P., p<0.05
Method: (§1) For the determination of the PI 3-kinase activity, the tissues are ground in a buffer containing protease and phosphatase inhibitors as well as a solubilising agent (Triton), as described by Taouis et al., J. Biol. Chem., 269, 14912, 1994. After solubilisation, the supernatants are immunoprecipitated with anti-IRS-1 and the PI 3-kinase activity is measured in the immunoprecipitate. In fact, the reaction is initiated by the addition of an artificial substrate of the enzyme: phosphatidylinositol (PI) and (^33P) gamma ATP. The product of the reaction is subjected to thin layer chromatography (TLC plate) and the levels of phosphorylation of PI are measured by a STORM phospho-imager (Molecular Dynamics). The activity is expressed in arbitrary units given by the apparatus (conversion of the radioactivity to luminescence by means of a laser beam). The PI 3-kinase activities of the PDGF receptor and of the insulin receptor in the presence or the absence of 4-OH-Ile (18 mg/kg I.P.) were compared following the protocol already described.

PI 3-kinase [2] = assay: PI 3-kinase activity of the muscle in type 2 diabetic rats; type: in vivo, rat; conditions: muscle of rats with type 2 diabetes; p<0.01 for 4-OH-Ile
Method: (§2) For the determination of the PI 3-kinase activity, the tissues are ground in a buffer containing protease and phosphatase inhibitors as well as a solubilising agent (Triton), as described by Taouis et al., J. Biol. Chem., 269, 14912, 1994. After solubilisation, the supernatants are immunoprecipitated with anti-IRS-1 and the PI 3-kinase activity is measured in the immunoprecipitate. In fact, the reaction is initiated by the addition of an artificial substrate of the enzyme: phosphatidylinositol (PI) and (^33P) gamma ATP. The product of the reaction is subjected to thin layer chromatography (TLC plate) and the levels of phosphorylation of PI are measured by a STORM phospho-imager (Molecular Dynamics). The activity is expressed in arbitrary units given by the apparatus (conversion of the radioactivity to luminescence by means of a laser beam). Comparison of the Effects of Insulin and Those of 4-OH-Ile on the PI 3-Kinase Activity of the Muscle and the Liver Removed from Rats with Type 2 Diabetes (Masiello et al., Diabetes 47, 224, 1998)

PI 3-kinase [3] = assay: PI 3-kinase activity of the liver in type 2 diabetic rats; type: in vivo, rat; conditions: liver of rats with type 2 diabetes; p<0.05 for 4-OH-Ile
Method: as §2

[4] = system: phosphatase activity associated with IRS-1; assay: Phosphatase activity associated with IRS-1 in the liver of a normal rat; type: biochemical; conditions: 200 μmol/1, p<0.05
Method: The phosphatase activity was measured on the immunoprecipitates carried out with the anti-IRS-1 antibody and insulin anti-receptor. The solubilisation protocol is the same as that for PI 3-kinase following the methodology described by Taouis et al. (J. Biol. Chem., 269, 14912, 1994). After immunoprecipitation, the phosphatase activity was measured according to the method described by Chen. et al. (J. Biol. Chem., 272, 8026, 1997). With the aim of better locating the action site of the 4-OH-Ile, its impact on phosphatase activity was studied. The phosphatase activity associated with IRS-1 was measured.

PI 3-kinase [5] = assay: PI 3-kinase activity of muscle (anti-IRS-1 immunoprecipitates), normal rats; type: in vivo, rat; conditions: normal Wistar rats, i.p., insulin 100 U/kg, 4-OH-Ile 18 mg/kg, 15 min after injection
Method: (§3) The PI 3-kinase activity was measured on immunoprecipitates carried out with the anti-IRS-1 antibody. This made it possible to determine the enzymatic activity associated with the action of insulin and to compare it to the action induced by 4-OH-Ile. Normal male Wistar rats (IFFA CREDO strain, France) received, via intraperitoneal injection, either ordinary insulin on its own (100 U/kg) or 4-OH-Ile on its own (18 mg/kg), or insulin combined with 4-OH-Ile in the same doses. The control rats received sodium chloride at 9‰ via intraperitoneal route. Fifteen minutes after the injection, the animals were sacrificed and the peripheral tissues (liver, muscle) were immediately removed and frozen in liquid nitrogen. […] After solubilisation, the supernatants are immunoprecipitated with anti-IRS-1 and the PI 3-kinase activity is measured in the immunoprecipitate. […] The product of the reaction is subjected to thin layer chromatography (TLC plate) and the levels of phosphorylation of PI are measured by a STORM phospho-imager (Molecular Dynamics). The activity is expressed in arbitrary units given by the apparatus (conversion of the radioactivity to luminescence by means of a laser beam).

insulin receptor (IR) = assay: Phosphorylation of the insulin receptor in the liver of normal rats; type: in vivo; conditions: normal rat liver, single injection 200 μg/kg I.P.; comparable to insulin
insulin receptor = assay: Bonding of insulin on its receptor in hepatic LMH cell lines; type: binding; conditions: LMH cells (chicken hepatocarcinoma), competition with insulin
Description: FIG. 4, the bonding of insulin on its receptor in hepatic LMH cell lines, In FIG. 4 the comparative results concerning the bonding of isoleucine and 4-OH-Ile are given. The LMH cells used in these trials are from chicken hepatocarcinoma (Kawaguchi T. et al., Cancer Res., 47, 4460, 1987).

[6] = Basal insulinemia and glycemia during chronic administration in type 2 diabetic rats; type: in vivo, rat
Method: The beneficial effect of 4-hydroxyisoleucine against relative hyperinsulinemia has been researched in vivo during chronic administration (for one month) of plant amino acid (25 mg/kg/day, by intraperitoneal route) on rats made non insulin dependant diabetic (type 2 diabetes) by joint injections of nicotinamide and streptozotocin (Masiello et al., Diabetes, 47, 224, 1998). Regular blood samples are taken from the caudal vein of the rats made it possible to evaluate the level of plasmatic insulin using a radio-immunological method (Herbert et al., J. Clin. Endocr., 25. 1375, 1965), 15 hours after injection of the product which took place at 5.30 pm. In these same samples, the plasmatic glucose level was measured using an enzymatic method (Trinder P., J. Clin. Pathol. 22, 158, 1969).

Water solubility = type: physicochemical
PI 3-kinase [7] = assay: PI 3-kinase activity of the liver (anti-IRS-1 immunoprecipitates), normal rats; type: in vivo, rat; conditions: normal Wistar rats, i.p., insulin 100 U/kg, 4-OH-Ile 18 mg/kg, 15 min after injection; p<0.05
Method: as §3

IRS-1 = assay: Phosphorylation of IRS-1 in the liver of normal rats; type: in vivo; conditions: normal rat liver, single injection 200 μg/kg I.P.; comparable to insulin
PI 3-kinase [8] = assay: Basal PI 3-kinase activity of the liver of obese Zucker rats (fa/fa) after chronic administration; type: in vivo, rat; conditions: 50 mg/kg i.p. for 4 weeks, sacrificed 17 hours after last administration
Method: as §1, with “beam). During chronic administration for 4 weeks of 4-OH-Ile (50 mg/kg by intraperitoneal route) in obese Zucker rats (fa/fa), the” for “beam). The”, “3-kinase activity” for “3-kinase activities”, “the liver was measured at the end” for “the PDGF receptor and”, “the treatment.” for “the insulin receptor in the presence or the absence of 4-OH-Ile (18 mg/kg I.P.) were compared following the protocol already described.”

Row | PI 3-kinase activity associated with the insulin receptor [1] | phosphatase activity associated with IRS-1 [4] | activation (phosphorylation) of the insulin receptor (IR) (insulin receptor (IR)) | solubility in water (Water solubility) | basal activity of PI 3-kinase of the liver (PI 3-kinase [8]) | Molecule | muscular PI 3-kinase activity (PI 3-kinase [2]) | hepatic PI 3-kinase activity (PI 3-kinase [3]) | PI 3-kinase activity of muscle (PI 3-kinase [5]) | bonding to the insulin membrane receptor of the hepatocyte (insulin receptor) | insulinemia (plasmatic insulin) ([6]; type 2 diabetic rats (nicotinamide/streptozotocin), 25 mg/kg/day i.p. for one month, 15 hours after injection) | glycemia ([6]; type 2 diabetic rats, 25 mg/kg/day i.p., at the end of the treatment) | plasmatic insulin after cessation of the treatment ([6]; type 2 diabetic rats, after cessation of 25 mg/kg/day i.p. treatment) | hepatic PI 3-kinase activity (PI 3-kinase [7]) | activation (phosphorylation) of IRS-1 (IRS-1)
1 | the only one increased | significantly inhibits | induces the activation | hydrosoluble | is increased | CC(O)C(C)C(N)C(=O)O (stereo not drawn) [4-OH-Ile, 4-hydroxyisoleucine] | the same effect as insulin with the same intensity; also recorded: significantly stimulates | the same effect as insulin with the same intensity; also recorded: significantly stimulates | has a comparable effect | has no bond with this receptor; also recorded: does not recognise the insulin receptor | significantly lowering | slight reduction | again rises to regain values close to those observed before the treatment | significantly stimulate | induces the activation
2 | – | – | – | – | – | insulin [reference compound] | activates | activates | clearly stimulates | – | – | – | – | significantly stimulate | –

— patent US7402611B1, “Use of amino acids for making medicines for treating to insulin-resistance” (Innodia Inc., priority 1999, dated 2008)
